Test [1] addresses T1, CB2 receptor (Homo sapiens, UniProt P34972).
T1 construct: expressed in transfected cells
As to the kind of experiment: Calcium mobilization assay, antagonist mode (CP55940 challenge), CHO expressing CB2. The format is cell-based. The method, then: (§1) Chinese hamster ovarian (CHO) cells collected from the American Type Culture Collection were maintained in Ham’s F-12K (Kaighn’s) supplemented with 100 mg/L streptomycin, 100 mg/L penicillin, and 10% fetal bovine serum (FBS) in a humidified atmosphere of 5% CO2 at 37 °C. CHO cells were co-transfected with plasmids encoding CB1 or CB2 and Gα16 by electroporation. To establish stable cell lines, transfected cells were seeded on 10 cm dishes with 40 μg/mL blasticidin and 1 mg/mL G418 in culture medium after 24 h. The selection medium was substituted once every 3 days until colonies formed. A solitary colony was obtained, propagated, and assessed using a calcium mobilization assay to verify the function and expression of the transfected genes.
(§2) 3 × 10^4 cells/well were employed to seed cells onto 96-well plates, which were subsequently incubated throughout the night. Cells were then treated with 2 μM Fluo-4 AM in HBSS (0.3 mM Na2HPO4, 5.4 mM KCl, 4.2 mM NaHCO3, 0.4 mM KH2PO4, 0.5 mM MgCl2, 1.3 mM CaCl2, 137 mM NaCl, 0.6 mM MgSO4, 250 μM sulfinpyrazone, and 5.6 mM D-glucose, pH 7.4) for 45 min at 37 °C. […] Meanwhile, the change of intracellular calcium was measured at an excitation wavelength of 525 and 485 nm. For antagonist mode, the extra dye was washed out and 50 μL of HBSS with test compounds, DMSO (negative control), or AM630 (positive control) was introduced. […] The change of intracellular calcium was captured at an excitation wavelength of 525 and 485 nm. To be noticed, each experiment has been independently replicated three times, with three repetitions and eight gradients each time.
(§3) The collected data were processed with GraphPad Prism software (GraphPad). […] Means ± SEM were computed utilizing this software. The analyses were evaluated by the Student t test. When the p value is smaller than 0.05, the result is statistically significant.
For orientation: Calcium flux is commonly read through the fluorescence of an indicator in the cells.

In test [2] the target is CB1 receptor (Homo sapiens, UniProt P21554). As to the kind of experiment: Calcium mobilization assay, antagonist mode (CP55940 challenge), CHO expressing CB1. The format is cell-based. The method, then: as §1, §2, §3
The target of test [3] is T1, CB2 receptor. The conditions noted are these: representative ligands for active CB2 (Table S7); ref SI refs 3, 6, 7, 10, 11; read-out: Experimental Ki, Active CB2; cited from earlier work.

T1 sequence (P34972 whole entry): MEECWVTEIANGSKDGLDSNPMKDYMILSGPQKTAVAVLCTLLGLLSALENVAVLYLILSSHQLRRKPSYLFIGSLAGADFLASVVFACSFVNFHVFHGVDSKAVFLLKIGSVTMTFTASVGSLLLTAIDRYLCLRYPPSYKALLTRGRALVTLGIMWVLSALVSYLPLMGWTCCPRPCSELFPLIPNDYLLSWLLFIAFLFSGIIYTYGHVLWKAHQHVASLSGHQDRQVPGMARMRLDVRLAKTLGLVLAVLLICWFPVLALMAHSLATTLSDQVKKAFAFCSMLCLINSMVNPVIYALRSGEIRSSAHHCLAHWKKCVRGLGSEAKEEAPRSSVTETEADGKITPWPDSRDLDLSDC
Sequence of CB1 receptor (P21554 whole entry): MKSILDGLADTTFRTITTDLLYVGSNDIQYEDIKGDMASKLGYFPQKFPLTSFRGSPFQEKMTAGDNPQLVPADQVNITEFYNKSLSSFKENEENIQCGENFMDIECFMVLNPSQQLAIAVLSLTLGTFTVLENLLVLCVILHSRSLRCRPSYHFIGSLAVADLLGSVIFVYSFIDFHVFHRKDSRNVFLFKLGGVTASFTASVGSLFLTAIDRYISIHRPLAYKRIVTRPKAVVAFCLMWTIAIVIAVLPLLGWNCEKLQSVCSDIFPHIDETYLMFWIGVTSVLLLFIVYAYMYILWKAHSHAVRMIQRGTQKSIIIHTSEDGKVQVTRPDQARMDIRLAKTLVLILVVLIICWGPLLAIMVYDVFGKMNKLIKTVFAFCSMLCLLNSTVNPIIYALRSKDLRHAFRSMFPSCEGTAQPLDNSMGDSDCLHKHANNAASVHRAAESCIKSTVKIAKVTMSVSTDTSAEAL

As usually defined, the IC50 is the point on the concentration scale where inhibition reaches its midpoint. As to `CCCS(=O)(=O)Oc1cc(C=C2SC(=O)N(CC(C)C)C2=O)ccc1OC` [Compound 40, 5-((3-Isobutyl-2,4-dioxothiazolidin-5-ylidene)methyl)-2-methoxyphenyl Propane-1-sulfonate], the IC50 in test [1] (CB2 IC50, antagonist activity, CHO expressing CB2, three independent assays, mean ± SEM) is 2.99 ± 1.42 µM; in test [1] (CB2 antagonist(μM) replicate 1, single independent experiment, replicate 1) it was 2.64 µM; in test [1] (CB2 antagonist(μM) replicate 2, single independent experiment, replicate 2) it was 5.6 µM; in test [1] (CB2 antagonist(μM) replicate3, single independent experiment, replicate 3), 0.728 µM; in test [2] it was above 10000 nM. The “SI, selectivity index for the CB2, SI = IC50(CB1)/IC50(CB2)” value in test [1] (antagonist mode) is above 3.

The term Ki denotes the equilibrium dissociation constant of an inhibitor or competing ligand from its target. As to `CCCCCn1cc(C(=O)C2C(C)(C)C2(C)C)c2ccccc21` [UR-144], the Ki in test [3] was 1.8 nM.

Source of the values: publication PMC10623575, “Discovery of Potent and Selective CB2 Agonists Utilizing a Function-Based Computational Screening Protocol” (ACS Chemical Neuroscience, 2023).
